The test system of assay [1] is Cavia porcellus. Kind of assay: Inhibition of LTD4 (5 ng/site) induced vascular permeability in guinea pig skin at dose 10 mg/kg given perorally. It is filed as functional. Particulars: route oral.
The subject of assay [2] is Cavia porcellus. The assay is described as follows: Inhibition of LTD4 (5 ng/site) induced vascular permeability in guinea pig skin at dose 30 mg/kg given perorally. It is filed as functional. The conditions noted are these: route oral.
Assay [3] concerns the target Cysteinyl leukotriene receptor (Homo sapiens) (UniProt Q9Y271+Q9NS75). Kind of assay: In vivo inhibition of LTD4-induced bronchoconstriction in anesthetized guinea pig. The assay is classed as functional, organism-based. Particulars: Cavia porcellus; target entry is the homologue from another species.
The target in assay [4] is T1, Cysteinyl leukotriene receptor (Homo sapiens, UniProt Q9Y271+Q9NS75).
T1 sequence (Q9Y271 whole entry): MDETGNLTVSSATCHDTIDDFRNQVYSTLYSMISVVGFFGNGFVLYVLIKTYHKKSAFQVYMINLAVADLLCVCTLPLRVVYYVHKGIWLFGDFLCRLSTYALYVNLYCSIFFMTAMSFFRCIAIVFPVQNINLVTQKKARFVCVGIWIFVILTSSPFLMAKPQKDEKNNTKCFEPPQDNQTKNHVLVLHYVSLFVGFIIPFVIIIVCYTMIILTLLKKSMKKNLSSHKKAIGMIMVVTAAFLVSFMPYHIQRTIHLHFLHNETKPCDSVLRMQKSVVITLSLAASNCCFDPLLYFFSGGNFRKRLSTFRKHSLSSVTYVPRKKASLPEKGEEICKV
T1 sequence (Q9NS75 whole entry): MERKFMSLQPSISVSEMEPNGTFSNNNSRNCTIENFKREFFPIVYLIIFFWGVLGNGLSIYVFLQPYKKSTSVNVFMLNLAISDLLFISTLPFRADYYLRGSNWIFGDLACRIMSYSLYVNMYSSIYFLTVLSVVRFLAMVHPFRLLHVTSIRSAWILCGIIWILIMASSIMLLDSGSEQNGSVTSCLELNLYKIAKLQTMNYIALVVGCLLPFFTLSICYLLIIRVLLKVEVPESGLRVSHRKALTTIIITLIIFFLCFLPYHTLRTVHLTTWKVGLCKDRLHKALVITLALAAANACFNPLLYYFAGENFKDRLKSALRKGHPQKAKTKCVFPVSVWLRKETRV
The assay is described as follows: Inhibition of LTC4 induced smooth muscle contraction of guinea pig ileum. It is filed as functional, tissue-based, Cavia porcellus. Particulars: target entry is the homologue from another species.

Assay [5] concerns Cavia porcellus. Kind of assay: Inhibition of LTB4 induced bronchoconstriction in guinea pig at dose of 3 ug/kg given intravenously. It is filed as functional. The conditions noted are these: iv, read-out: ID50 (the source's name).
In assay [6] the test system is Cavia porcellus. The assay is described as follows: Inhibition of LTC4 induced bronchoconstriction in guinea pig at dose of (0.5 ug/kg) given intravenously. It is filed as functional. The conditions noted are these: iv, read-out: ID50 (the source's name).
For assay [7], the system named is Cavia porcellus. Kind of assay: Inhibition of LTD4 induced bronchoconstriction in guinea pig at dose of (0.5 ug/kg) given intravenously. It is filed as functional. The conditions noted are these: iv, read-out: ID50 (the source's name).
Assay [8] concerns Cavia porcellus. The assay is described as follows: Inhibition of LTE4 induced bronchoconstriction in guinea pig at dose of 1 ug/kg given intravenously. The assay is classed as functional. Particulars: iv, read-out: ID50 (the source's name).
In assay [9] the test system is Cavia porcellus. The assay is described as follows: Inhibition of LTD4 (5 ng/site) induced vascular permeability in guinea pig skin at dose 0.3 mg/kg given perorally. The conditions noted are these: route oral. It is filed as functional.
Assay [10] relates to Cavia porcellus. Kind of assay: Inhibition of LTD4 (5 ng/site) induced vascular permeability in guinea pig skin at dose 1 mg/kg given perorally. It is filed as functional. Particulars: route oral.
Assay [11] deals with Cavia porcellus. The assay is described as follows: Inhibition of LTC4-induced bronchoconstriction in guinea pig at dose of (0.5 ug/kg) given intravenously. The assay is classed as functional. Particulars: iv, read-out: ID50 (the source's name).
In assay [12] the test system is Cavia porcellus. Kind of assay: Inhibition of LTD4-induced bronchoconstriction in guinea pig in guinea pig at dose of (0.5 ug/kg) given intravenously. The assay is classed as functional. The conditions noted are these: iv, read-out: ID50 (the source's name).
Assay [13] has as its system Cavia porcellus. Kind of assay: Inhibition of LTE4-induced bronchoconstriction in guinea pig at dose of (1 ug/kg) given intravenously. The assay is classed as functional. The conditions noted are these: iv, read-out: ID50 (the source's name).
In assay [14] the test system is Cavia porcellus. The assay is described as follows: Inhibition of LTB4 induced bronchoconstriction in guinea pig at dose of (1 ug/kg) given intravenously. It is filed as functional. The conditions noted are these: iv, read-out: ID50 (the source's name).
Assay [15] has as its system Cavia porcellus. The assay is described as follows: Inhibition of LTD4-induced bronchoconstriction in guinea pig at dose of (0.5 ug/kg) given intravenously. The assay is classed as functional. Particulars: iv, read-out: ID50 (the source's name).

Each structure is given as a SMILES string.

The compound `O=C(Nc1cccc2c1OC(c1nnn[nH]1)CO2)c1ccc(OCCCCc2ccccc2)cc1` (stereo not given) gave an inhibition in vivo at 10 mg/kg in assay [1] of 61.8%. The compound also gave an inhibition in vivo at 30 mg/kg in assay [2] of 63.2%. In addition, the ID50 in assay [3] worked out at 1.2 µg/kg. In addition, the IC50 in assay [4] was determined as 0.37 nM. The ED50 was more than 500 µg/kg in assay [5], 1.1 µg/kg in assay [6], 4.4 µg/kg in assay [7] and 2 µg/kg in assay [8].

Regarding `C=CCCC/C=C/COc1ccc(C(=O)Nc2cccc3c2OC(c2nnn[nH]2)CO3)cc1` (stereo not given), testing at 10 mg/kg in [1] gave an inhibition in vivo of 2.9%. Moreover, the 50% inhibitory concentration (IC50) in assay [4] amounted to 1.1 nM.

On to `C=CCCCCCCOc1ccc(C(=O)Nc2cccc3c(=O)cc(-c4nn[nH]n4)oc23)cc1`, for which, in [9], the inhibition in vivo at 0.3 mg/kg was less than 46.7%. Further, the inhibition in vivo at 1 mg/kg in assay [10] is less than 60.7%. The compound also gave an ID50 in [3] of 1.9 µg/kg. This compound also gave a half-inhibitory concentration (IC50) in [4] of 0.11 nM.

As to `O=C(Nc1cccc2c(=O)cc(-c3nnn[nH]3)oc12)c1ccc(OCCCCc2ccccc2)cc1`, the inhibition in vivo at 0.3 mg/kg in [9] was 74.7%. This compound also registered an inhibition in vivo at 1 mg/kg in [10] of 75.2%. This compound also showed an ID50 in assay [3] of 0.8 µg/kg. In addition, the ED50 in [5] was more than 500 µg/kg; in [11], 0.8 µg/kg; in assay [12] it was 1 µg/kg; in assay [13], 0.7 µg/kg.

In assay [1], `CCCCC/C=C/COc1ccc(C(=O)Nc2cccc3c2OC(c2nnn[nH]2)CO3)cc1` (stereo not given) registered an inhibition in vivo at 10 mg/kg of 30.4%. Besides, the inhibition in vivo at 30 mg/kg in assay [2] is less than 43.8%. In assay [3], this compound yielded an ID50 of 2 µg/kg. Further, the IC50 in assay [4] was found to be 2 nM.

For the compound `CCCc1c(OCC(O)COc2ccc3c(=O)cc(C(=O)[O-])oc3c2CCC)ccc(C(C)=O)c1O.[Na+]` (stereo not given) [FPL-55712 SODIUM SALT], the ID50 in assay [3] is 500 µg/kg. Moreover, the ED50 is more than 500 µg/kg in assay [14], 155 µg/kg in [11], 440 µg/kg in assay [15] and 211 µg/kg in assay [13].

In assay [1], `CCCCCCCOc1ccc(C(=O)Nc2cccc3c2OC(c2nnn[nH]2)CO3)cc1` (stereo not given) registered an inhibition in vivo at 10 mg/kg of less than 46.7%. In [4], this compound returned an IC50 of 9 nM.

`C=CCCCCCCOc1ccc(C(=O)Nc2cccc3c2OC(c2nnn[nH]2)CO3)cc1` (stereo not given) gave an inhibition in vivo at 10 mg/kg in [1] of less than 75.2%. Besides, the ID50 in [3] was 1.7 µg/kg. The compound also came in with an IC50 in [4] of 1.3 nM.

In turn, `CCCCC/C=C/COc1ccc(C(=O)Nc2cccc3c(=O)cc(-c4nn[nH]n4)oc23)cc1` showed an inhibition in vivo at 1 mg/kg in [10] of 25%. The compound further showed an ID50 in assay [3] of 0.72 µg/kg. In [4], the IC50 is reported as 0.06 nM.

`CCCCCc1ccc(/C=C/C(=O)Nc2cccc3c(=O)cc(-c4nn[nH]n4)oc23)cc1` gave an ID50 in [3] of 14 µg/kg. For the same compound, the IC50 in [4] is given as 30 nM.

The compound `CCCCCc1ccc(/C=C/C(=O)Nc2ccccc2OCc2nn[nH]n2)cc1` showed an ID50 in [3] of 500 µg/kg. The compound also displayed a concentration for half-maximal inhibition (IC50) in assay [4] of 3000 nM.

For the compound `C=CCCC/C=C/COc1ccc(C(=O)Nc2cccc3c(=O)cc(-c4nn[nH]n4)oc23)cc1`, the inhibition in vivo at 0.3 mg/kg in [9] is less than 44.6%. In [3], the ID50 amounted to 1.2 µg/kg. This compound registered an IC50 in assay [4] of 0.16 nM.

What is called inhibition in vivo is the percentage by which the read-out fell short of the control. The IC50 is the concentration needed to halve the response being measured. High values mean weaker potency in that assay, low ones greater potency in that assay.

For the origin of these results see ChEMBL document CHEMBL1123967, “New potent antagonists of leukotrienes C4 and D4. 1. Synthesis and structure-activity relationships” (J Med Chem, 1988).
